Laboratory results from patent US7786097B2, “Tricyclic compounds, compositions and methods” (Pfizer Inc., priority 2007, dated 2010).

What was measured:
[1] = test system: Serum osteocalcin; assay: Serum osteocalcin suppression, 28-day repeat dose mouse model; assay type: in vivo, Swiss Webster female mice; conditions: mice
Experimental: The compounds were weighed and suspended in a vehicle of 0.5% methylcellulose/0.025% tween 20 (Sigma-Aldrich, St. Louis, Mo.). Compound suspensions were homogenized using a Polytron PT-3100 tissue homogenizer to create a very fine suspension and were then sonicated for 10 minutes using a water bath sonicator. Aliquots of each suspension were made for daily dosing at 0.2 ml/dose. Swiss Webster female mice, 10-12 weeks old, 28-29 grams, (Taconic, Germantown, N.Y.) were used in accordance with the guidelines of the Institutional Animal Care and Use Committee and in accordance with NIH guidelines on laboratory animal welfare. Mice were acclimated in the Pfizer animal facility for three to seven days prior to being utilized in a study. […] Each treatment group contained 5-10 mice. To establish a dosing regimen for the studies, a pilot pharmacodynamic time course experiment was conducted to quantify TNFα repression after a single ED80 dose.
Body weights were measured on the first and last day of each experiment. Blood samples were obtained after three weeks of dosing for a steady-state pharmacokinetic (PK) analysis. To assess compound effects on LPS-induced TNFα, all mice received an intraperitoneal injection of LPS (Salmonella typhosa, L-7895; Sigma-Aldrich, St. Louis) 2.5 hr after the last dose on day 28. Mice were sacrificed 90 minutes after LPS administration. Serum samples were quantified for osteocalcin and TNFα using the multiplex assays (Linco Research, Inc, St. Charles, Mo.; Luminex 100, Austin, Tex.). Samples were diluted 1:20 and the assay was run according to manufacturer's instructions. The osteocalcin standard was purchased separately (Biomedical Technologies Inc., Stoughton, Mass.). Mice were fasted for 4 hours before serum was collected for TNFα, and osteocalcin levels. For each experiment, outliers were detected by calculating the number of standard deviations from the mean of the group. If the value being examined was more than 2.5 standard deviations from the mean, it was excluded from the rest of the calculations.
The individual mouse percent inhibition values were fit to a four-parameter logistic model using the dose mean for each group.
ED50 and ED80 values were obtained for the various endpoints using a four-parameter logistic fit. For compounds which were tested multiple times, ED50 and ED80 values were obtained using four-parameter logistic fits of the combined data from multiple experiments.

[2] = test system: Mouse Collagen-Induced Arthritis (mCIA); assay: Therapeutic mouse collagen-induced arthritis (mCIA) model; assay type: in vivo, Male DBA/J mice; conditions: Mus musculus; mice, dosing day 34 through day 49; read-out: Therapeutic mCIA (ED80 dose)
Excerpt: Mouse Collagen-induced arthritis is a commonly used chronic, preclinical model of rheumatoid arthritis in which joint swelling and bone destruction occur following immunization with type II collagen. Reduction of disease incidence and severity has been shown previously to be predictive of disease-modification and signs and symptoms mitigation, respectively, in a clinical setting.
In the therapeutic mCIA model, induction of disease incidence and severity was synchronized via LPS stimulation. Male DBA/J mice were immunized with 100 ug of bovine type II collagen (bCII) on day 0. All mice received an intraperitoneal injection of 20 μg of LPS on day 28 and disease was allowed to develop through day 34. At day 34, all mice had disease (incidence=100%) with an average severity score of seven. Dosing of compounds was initiated in the therapeutic mode on day 34 and continued through day 49. Different treatments were compared by measuring the decrease in incidence (i.e., resolution of disease) and the decrease in severity of paw swelling over time.

[3] = test system: Cortical bone formation rate (BFR); assay: Cortical bone histomorphometry, bone formation rate (BFR); assay type: in vivo; conditions: AUC 0-4 hr, mice
Experimental: During the in-life portion of each study, mice received two intraperitoneal (i.p.) injections (20 mg/kg, […]) of calcein (C-0875; Sigma-Aldrich, St. Louis, Mo.) on days 1 and 26 for bone histomorphometry measurements. Calcein incorporates into the bone mineral and allows measurement of bone formation rate. Calcein was dissolved in 2% sodium bicarbonate. During the tissue harvest, the left tibiae were excised and cleaned for cortical histomorphometry measurements. After all skin and muscle were removed, tibiae were placed in 70% ethanol 4° C.) in the dark for a minimum of 24 hours.
Ground transverse sections were used for histomorphometric analysis of cortical bone. Bones were sectioned using a low-speed saw (Isomet, Buehler, Lake Bluff, Ill.) equipped with a diamond wafer blade. The end of each tibia was removed proximal to tibia-fibula synostosis and a […] cross-section was cut. Using a roughened glass plate and a cork, sections were ground to […] until transparent and all labels were distinguishable under a fluorescent microscope. Sections were dehydrated using the following solutions for a minimum of two minutes each: 1) 70% ethanol, 2) 95% ethanol, 3) 100% ethanol, 4) 50/50 ethanol/xylene, and 5) xylene (twice) (#534056; Sigma-Aldrich, St. Louis, Mo.). Sections were mounted using Eukitt Quick Mounting Medium (#03989, Sigma-Aldrich, St. Louis, Mo.) after which coverslip was applied. Using the Osteomeasure Bone Analysis Program (Osteometrics, Inc., Decatur, Ga.), bone formation rate was calculated by tracing the 1st and […] fluorescent labels and the inner and outer perimeter of the bone. Bone formation rate was calculated by the following equation: (Inter-label width/Label interval)*(Labeled perimeter/Bone perimeter). At least five samples were measured from each treatment group in each study.

[4] = Oral dosing in portal vein-cannulated rats, portal vein plasma; assay type: in vivo; conditions: oral dosing of Example 2 (30 and 200 mg/kg), four-hour time period
[5] = test system: house dust mite-induced BAL inflammatory cell influx; assay: House dust mite model of asthma, BAL inflammatory cell influx; assay type: in vivo, Mice; conditions: 0.1, 1 and 10 mg/kg, p.o., b.i.d.

## Cc1ncccc1NC(=O)c1ccc2c(c1)CC[C@@H]1C[C@@](O)(C(F)(F)F)CC[C@@]21Cc1ccccc1 [Example 1, (4βS,7R,8αR)-4β-benzyl-7-hydroxy-N-(2-methylpyridin-3-yl)-7-(trifluoromethyl)-4β,5,6,7,8,8α,9,10-octahydrophenanthrene-2-carboxamide]
[1]; AUC 0-4 hr
  Serum osteocalcin EAUC50: 1300 ng·h/mL
  Serum osteocalcin EAUC80: 4200 ng·h/mL
[1]; oral gavage 28 days, serum osteocalcin
  Osteocalcin Suppression (ED80 dose): >10 mg/kg
[2]
  ED80: < 2 mg/kg
[3]
  Cortical bone formation rate (BFR) EAUC50: 270 ng·h/mL
[4]
  detection in portal vein plasma samples: detection of Example 1
[5]
  cell infiltration into BAL fluid: mitigated cell infiltration into BAL fluid dose-dependently
